Results: the NIST ThermoML archive (doi:10.1016/j.fluid.2004.11.019)
Numbers after ± are expanded uncertainties.

Assay: xn = mol fraction of the nth substance listed
Conditions: 323.15 K, Liquid

A mass density (20000 kPa, x1 = 0.1225) of 949.2 ± 0.3 kg/m3, a mass density (20000 kPa, x1 = 0.1296) of 946.9 ± 0.3 kg/m3 and a mass density (20000 kPa, x1 = 0.1402) of 943.3 ± 0.3 kg/m3 were found for `CCO` [ethanol] + O in this work. For the same compound, the mass density (20000 kPa, x1 = 0.151) was 939.7 ± 0.3 kg/m3, the mass density (20000 kPa, x1 = 0.1601) was 936.7 ± 0.3 kg/m3 and the mass density (20000 kPa, x1 = 0.1703) was 933.3 ± 0.3 kg/m3. The mass density (20000 kPa, x1 = 0.18) was 930.1 ± 0.3 kg/m3, the mass density (20000 kPa, x1 = 0.1903) was 926.8 ± 0.3 kg/m3 and the mass density (20000 kPa, x1 = 0.1996) was 923.8 ± 0.3 kg/m3. The mass density (20000 kPa, x1 = 0.2269) was 915.3 ± 0.4 kg/m3, the mass density (20000 kPa, x1 = 0.2502) was 908.5 ± 0.4 kg/m3 and the mass density (20000 kPa, x1 = 0.2745) was 901.6 ± 0.4 kg/m3. The mass density (20000 kPa, x1 = 0.3009) was 894.7 ± 0.4 kg/m3, the mass density (20000 kPa, x1 = 0.35) was 882.1 ± 0.4 kg/m3 and the mass density (20000 kPa, x1 = 0.4034) was 869.8 ± 0.4 kg/m3. For the same compound, the mass density (20000 kPa, x1 = 0.4501) was 859.7 ± 0.5 kg/m3, the mass density (20000 kPa, x1 = 0.498) was 850.6 ± 0.5 kg/m3 and the mass density (20000 kPa, x1 = 0.5501) was 841.2 ± 0.5 kg/m3. The mass density (20000 kPa, x1 = 0.5998) was 833.5 ± 0.5 kg/m3, the mass density (20000 kPa, x1 = 0.6489) was 825.3 ± 0.5 kg/m3 and the mass density (20000 kPa, x1 = 0.6967) was 818.4 ± 0.5 kg/m3. The mass density (20000 kPa, x1 = 0.7475) was 811.7 ± 0.5 kg/m3, the mass density (20000 kPa, x1 = 0.7996) was 804.9 ± 0.6 kg/m3 and the mass density (20000 kPa, x1 = 0.8484) was 799.1 ± 0.6 kg/m3. The mass density (20000 kPa, x1 = 0.8993) was 793.2 ± 0.6 kg/m3, the mass density (20000 kPa, x1 = 0.9503) was 787.7 ± 0.6 kg/m3 and the mass density (20000 kPa, x1 = 1) was 782.3 ± 0.6 kg/m3. The mass density (30000 kPa, x1 = 0.003) was 999 ± 0.2 kg/m3, the mass density (30000 kPa, x1 = 0.0042) was 998 ± 0.2 kg/m3 and the mass density (30000 kPa, x1 = 0.0082) was 996.5 ± 0.3 kg/m3. For the same compound, the mass density (30000 kPa, x1 = 0.0119) was 995.2 ± 0.3 kg/m3, the mass density (30000 kPa, x1 = 0.0158) was 993 ± 0.3 kg/m3 and the mass density (30000 kPa, x1 = 0.0184) was 991.5 ± 0.3 kg/m3. The mass density (30000 kPa, x1 = 0.0219) was 990.4 ± 0.3 kg/m3, the mass density (30000 kPa, x1 = 0.0255) was 988.7 ± 0.3 kg/m3 and the mass density (30000 kPa, x1 = 0.0279) was 987.1 ± 0.3 kg/m3. The mass density (30000 kPa, x1 = 0.0315) was 986.3 ± 0.3 kg/m3, the mass density (30000 kPa, x1 = 0.0366) was 983.6 ± 0.3 kg/m3 and the mass density (30000 kPa, x1 = 0.0392) was 982.4 ± 0.3 kg/m3. The mass density (30000 kPa, x1 = 0.0439) was 980.8 ± 0.3 kg/m3, the mass density (30000 kPa, x1 = 0.0483) was 978.8 ± 0.3 kg/m3 and the mass density (30000 kPa, x1 = 0.0516) was 978 ± 0.3 kg/m3. It also gave a mass density (30000 kPa, x1 = 0.0559) of 976.6 ± 0.3 kg/m3, a mass density (30000 kPa, x1 = 0.06) of 975.1 ± 0.3 kg/m3 and a mass density (30000 kPa, x1 = 0.0652) of 973.1 ± 0.3 kg/m3. The mass density (30000 kPa, x1 = 0.0679) was 972.3 ± 0.3 kg/m3, the mass density (30000 kPa, x1 = 0.0722) was 970.5 ± 0.3 kg/m3 and the mass density (30000 kPa, x1 = 0.0801) was 967.4 ± 0.3 kg/m3. It also gave a mass density (30000 kPa, x1 = 0.084) of 967 ± 0.3 kg/m3, a mass density (30000 kPa, x1 = 0.0879) of 965.3 ± 0.3 kg/m3 and a mass density (30000 kPa, x1 = 0.0926) of 963.7 ± 0.3 kg/m3. The mass density (30000 kPa, x1 = 0.0958) was 962.6 ± 0.3 kg/m3, the mass density (30000 kPa, x1 = 0.1006) was 961 ± 0.3 kg/m3 and the mass density (30000 kPa, x1 = 0.1111) was 957.3 ± 0.3 kg/m3. It also gave a mass density (30000 kPa, x1 = 0.1225) of 953.4 ± 0.3 kg/m3, a mass density (30000 kPa, x1 = 0.1296) of 951.1 ± 0.3 kg/m3 and a mass density (30000 kPa, x1 = 0.1402) of 947.6 ± 0.3 kg/m3. The mass density (30000 kPa, x1 = 0.151) was 944 ± 0.3 kg/m3, the mass density (30000 kPa, x1 = 0.1601) was 941.1 ± 0.3 kg/m3 and the mass density (30000 kPa, x1 = 0.1703) was 937.7 ± 0.4 kg/m3. The mass density (30000 kPa, x1 = 0.18) was 934.6 ± 0.4 kg/m3, the mass density (30000 kPa, x1 = 0.1903) was 931.4 ± 0.4 kg/m3 and the mass density (30000 kPa, x1 = 0.1996) was 928.4 ± 0.4 kg/m3. The mass density (30000 kPa, x1 = 0.2269) was 920.1 ± 0.4 kg/m3, the mass density (30000 kPa, x1 = 0.2502) was 913.5 ± 0.4 kg/m3 and the mass density (30000 kPa, x1 = 0.2745) was 906.7 ± 0.4 kg/m3. The mass density (30000 kPa, x1 = 0.3009) was 899.8 ± 0.4 kg/m3, the mass density (30000 kPa, x1 = 0.35) was 887.5 ± 0.5 kg/m3 and the mass density (30000 kPa, x1 = 0.4034) was 875.5 ± 0.5 kg/m3. The mass density (30000 kPa, x1 = 0.4501) was 865.7 ± 0.5 kg/m3, the mass density (30000 kPa, x1 = 0.498) was 856.8 ± 0.5 kg/m3 and the mass density (30000 kPa, x1 = 0.5501) was 847.6 ± 0.6 kg/m3. The mass density (30000 kPa, x1 = 0.5998) was 839.6 ± 0.6 kg/m3, the mass density (30000 kPa, x1 = 0.6489) was 832.1 ± 0.6 kg/m3 and the mass density (30000 kPa, x1 = 0.6967) was 825.4 ± 0.6 kg/m3. It also gave a mass density (30000 kPa, x1 = 0.7475) of 818.8 ± 0.7 kg/m3, a mass density (30000 kPa, x1 = 0.7996) of 812.3 ± 0.7 kg/m3 and a mass density (30000 kPa, x1 = 0.8484) of 806.6 ± 0.7 kg/m3. The mass density (30000 kPa, x1 = 0.8993) was 800.9 ± 0.7 kg/m3, the mass density (30000 kPa, x1 = 0.9503) was 795.6 ± 0.7 kg/m3 and the mass density (30000 kPa, x1 = 1) was 790.3 ± 0.7 kg/m3. It also gave a mass density (40000 kPa, x1 = 0.003) of 1003.1 ± 0.2 kg/m3, a mass density (40000 kPa, x1 = 0.0042) of 1002 ± 0.2 kg/m3 and a mass density (40000 kPa, x1 = 0.0082) of 1000.5 ± 0.3 kg/m3. It also gave a mass density (40000 kPa, x1 = 0.0119) of 999.2 ± 0.3 kg/m3, a mass density (40000 kPa, x1 = 0.0158) of 996.9 ± 0.3 kg/m3 and a mass density (40000 kPa, x1 = 0.0184) of 995.5 ± 0.3 kg/m3. The mass density (40000 kPa, x1 = 0.0219) was 994.4 ± 0.3 kg/m3, the mass density (40000 kPa, x1 = 0.0255) was 992.7 ± 0.3 kg/m3 and the mass density (40000 kPa, x1 = 0.0279) was 991.1 ± 0.3 kg/m3. It also gave a mass density (40000 kPa, x1 = 0.0315) of 990.2 ± 0.3 kg/m3, a mass density (40000 kPa, x1 = 0.0366) of 987.6 ± 0.3 kg/m3 and a mass density (40000 kPa, x1 = 0.0392) of 986.3 ± 0.3 kg/m3. For the same compound, the mass density (40000 kPa, x1 = 0.0439) was 984.7 ± 0.3 kg/m3, the mass density (40000 kPa, x1 = 0.0483) was 982.7 ± 0.3 kg/m3 and the mass density (40000 kPa, x1 = 0.0516) was 982 ± 0.3 kg/m3. The mass density (40000 kPa, x1 = 0.0559) was 980.5 ± 0.3 kg/m3, the mass density (40000 kPa, x1 = 0.06) was 979.1 ± 0.3 kg/m3 and the mass density (40000 kPa, x1 = 0.0652) was 977 ± 0.3 kg/m3. The mass density (40000 kPa, x1 = 0.0679) was 976.3 ± 0.3 kg/m3 and the mass density (40000 kPa, x1 = 0.0722) was 974.4 ± 0.3 kg/m3.
